# From patent US20070134261A1, “Effectors of innate immunity” (priority 2001, published 2007)
# Like-named read-outs stand apart in the source and are kept apart here. No end group written: not given here.
# Assays:
# [1] = assay type: cell-based
# [2] = test system: human bronchial epithelial cells (HBE); assay: LDH release assay (Cytotoxicity Detection Kit); assay type: cell-based; settings: 24 hours; for LDH Release (OD490 nm): 100 μg/ml, no peptide control 1.0 ± 0.05; for toxicity / membrane damage: as measured by both assays (LDH, WST-1), HBE cells
# Protocol: (§1) The potential toxicity of the peptides was measured in two ways. First, the Cytotoxicity Detection Kit (Roche) (Lactate dehydrogenase-LDH) Assay was used. It is a colorimetric assay for the quantification of cell death and cell lysis, based on the measurement of LDH activity released from the cytosol of damaged cells into the supernatant. LDH is a stable cytoplasmic enzyme present in all cells and it is released into the cell culture supernatant upon damage of the plasma membrane. An increase in the amount of dead or plasma membrane-damaged cells results in an increase of the LDH enzyme activity in the culture supernatant as measured with an ELISA plate reader, OD490 nm (the amount of color formed in the assay is proportional to the number of lysed cells). In this assay, human bronchial epithelial cells (I6HBEo14, HBE) cells were incubated with 100 μg of peptide for 24 hours, the supernatant removed and tested for LDH. The other assay used to measure toxicity of the cationic peptides was the WST-1 assay (Roche). This assay is a colorimetric assay for the quantification of cell proliferation and cell viability, based on the cleavage of the tetrazolium salt WST-1 by mitochondrial dehydrogenases in viable cells (a non-radioactive alternative to the [^3H]-thymidine incorporation assay). In this assay, HBE cells were incubated with 100 μg of peptide for 24 hours, and then 10 μl/well Cell Proliferation Reagent WST-1 was added. The cells are incubated with the reagent and the plate is then measured with an ELISA plate reader, OD490 nm.
# HBE cells = assay: WST-1 assay (cell viability); assay type: cell-based, human
# Protocol: as §1
# A549 epithelial cells = assay: Human Operon arrays (PRHU04-S1) of A549 cells treated with peptide alone (Tables 31-37, 53); settings: peptide 50 μg/ml, 4 h, A549 cells; for X58467 cytochrome P450, expression Ratio ID#:ctrl: Table 36
# [3] = Citobacter rhodensis, overnight, 96-well plate
# [4] = Enterohaemorrhagic E. coli, overnight, 96-well plate
# [5] = Escherichia coli, overnight, 96-well plate
# [6] = Pseudomonas aeruginosa, overnight, 96-well plate
# [7] = Salmonella enteritidis ssp. typhimurium, overnight, 96-well plate
# [8] = Staphylococcus aureus, overnight, 96-well plate
compound,measurement,setting,value
KKQMMKRVDVRGISVKRKR [SEQ ID NO: 34],"MIC, C. rhod.",[1]; 24 h,64 µg/mL
same,"MIC, E. coli",[1]; 24 h,8 µg/mL
same,"MIC, EHEC",[1]; 24 h,8 µg/mL
same,"MIC, S. typhim.",[1]; 24 h,32 µg/mL
same,LDH Release (OD490 nm),[2],1.02 ± 0.03 OD490 nm
same,OD490 nm (WST-1 cell viability),HBE cells,0.96 ± 0.05 OD490 nm
RRDCRRVMVRGIDIKAK [SEQ ID NO: 36],"MIC, C. rhod.",[1]; 24 h,32 µg/mL
same,"MIC, E. coli",[1]; 24 h,32 µg/mL
same,"MIC, EHEC",[1]; 24 h,16 µg/mL
same,"MIC, S. typhim.",[1]; 24 h,32 µg/mL
same,LDH Release (OD490 nm),[2],0.85 ± 0.04 OD490 nm
same,OD490 nm (WST-1 cell viability),HBE cells,1.58 ± 0.05 OD490 nm
CC[C@H](C)[C@H](NC(=O)[C@H](CC(C)C)NC(=O)[C@H](C)NC(=O)[C@@H]1CCCN1C(=O)[C@H](CC(C)C)NC(=O)CNC(=O)[C@@H](NC(=O)[C@@H](NC(=O)[C@H](CC(C)C)NC(=O)[C@@H](NC(=O)[C@H](CCCCN)NC(=O)[C@H](CCCCN)NC(=O)[C@H](CC(C)C)NC(=O)[C@H](C)NC(=O)[C@H](CCCCN)NC(=O)[C@H](CCSC)NC(=O)[C@H](CC(C)C)NC(=O)[C@H](CCSC)NC(=O)[C@H](CCCCN)NC(=O)[C@H](CC(C)C)NC(=O)[C@H](Cc1ccccc1)NC(=O)[C@H](CO)NC(=O)[C@H](CCCCN)NC(=O)[C@H](CO)NC(=O)[C@@H](N)CCCCN)C(C)C)[C@@H](C)O)[C@@H](C)O)C(=O)N[C@@H](CO)C(=O)O [SEQ ID NO: 41],"MIC, C. rhod.",[1]; [3],2 µg/mL
same,"MIC, EHEC",[1]; [4],2 µg/mL
same,"MIC, E. coli",[1]; [5],4 µg/mL
same,"MIC, P. aerug.",[1]; [6],8 µg/mL
same,"MIC, S. typhim.",[1]; [7],8 µg/mL
same,"MIC, S. aureus",[1]; [8],64 µg/mL
same,LDH Release (OD490 nm),[2],3.3 ± 0.2 OD490 nm
same,toxicity / membrane damage,[2],did induce membrane damage
same,OD490 nm (WST-1 cell viability),HBE cells,0.40 ± 0.01 OD490 nm
KKDAIKKVDIRGMDMRRAR [SEQ ID NO: 28],"MIC, C. rhod.",[1]; 24 h,64 µg/mL
same,"MIC, EHEC",[1]; 24 h,128 µg/mL
same,"MIC, S. typhim.",[1]; 24 h,64 µg/mL
same,LDH Release (OD490 nm),[2],0.96 ± 0.06 OD490 nm
same,OD490 nm (WST-1 cell viability),HBE cells,1.69 ± 0.03 OD490 nm
KQKLFAKMLMSALKKKTLVTTPLAGK [SEQ ID NO: 45],"MIC, C. rhod.",[1]; 24 h,16 µg/mL
same,"MIC, E. coli",[1]; 24 h,8 µg/mL
same,"MIC, EHEC",[1]; 24 h,16 µg/mL
same,"MIC, P. aerug.",[1]; 24 h,128 µg/mL
same,"MIC, S. typhim.",[1]; 24 h,128 µg/mL
same,LDH Release (OD490 nm),[2],0.98 ± 0.04 OD490 nm
same,OD490 nm (WST-1 cell viability),HBE cells,1.54 ± 0.35 OD490 nm
KWKSYAHTIMSPVRLIFHTALKPISS [SEQ ID NO: 48],"MIC, C. rhod.",[1]; [3],1 µg/mL
same,"MIC, EHEC",[1]; [4],2 µg/mL
same,"MIC, E. coli",[1]; [5],16 µg/mL
same,"MIC, P. aerug.",[1]; [6],128 µg/mL
same,"MIC, S. typhim.",[1]; [7],16 µg/mL
same,LDH Release (OD490 nm),[2],0.95 ± 0.05 OD490 nm
same,OD490 nm (WST-1 cell viability),HBE cells,0.93 ± 0.08 OD490 nm
RRARIVPAIPVARR [SEQ ID NO: 9],LDH Release (OD490 nm),[2],1.6 ± 0.03 OD490 nm
same,OD490 nm (WST-1 cell viability),HBE cells,1.69 ± 0.29 OD490 nm
TTLGPVKRDSIPGE [ID 14],"ID#:ctrl intensity ratio, M14565 cytochrome P450",A549 epithelial cells,5.0
RAAFKWAWAWWRRK [ID 23],"ID#:ctrl intensity ratio, X65962 cytochrome P-450",A549 epithelial cells,19.8
KMKSFAKMLMLALKKVLKVLTTALTLKAGLPS [ID 43],"X58467 cytochrome P450, expression Ratio ID#:ctrl",A549 epithelial cells,7.9
KCKLFKKMLMLALKKVLTTGLPALKLTK [SEQ ID NO: 40],"MIC, C. rhod.",[1]; [3],4 µg/mL
same,"MIC, EHEC",[1]; [4],2 µg/mL
same,"MIC, E. coli",[1]; [5],4 µg/mL
same,"MIC, P. aerug.",[1]; [6],8 µg/mL
same,"MIC, S. typhim.",[1]; [7],4 µg/mL
same,"MIC, S. aureus",[1]; [8],32 µg/mL
same,LDH Release (OD490 nm),[2],2.8 ± 0.5 OD490 nm
same,toxicity / membrane damage,[2],did induce membrane damage
same,OD490 nm (WST-1 cell viability),HBE cells,0.46 ± 0.06 OD490 nm
Triton X-100 [reference compound],LDH Release (OD490 nm),[2],4.6 ± 0.1 OD490 nm
same,OD490 nm (WST-1 cell viability),HBE cells,0.26 ± 0.01 OD490 nm
KTKKFAKMLMMALKKVVSTAKPLAILS [ID 42],"X58467 cytochrome P450, expression Ratio ID#:ctrl",A549 epithelial cells,4.7
Polymyxin,"MIC, C. rhod.",[1]; [3],0.25 µg/mL
same,"MIC, EHEC",[1]; [4],0.5 µg/mL
same,"MIC, E. coli",[1]; [5],0.25 µg/mL
same,"MIC, P. aerug.",[1]; [6],0.25 µg/mL
same,"MIC, S. typhim.",[1]; [7],0.5 µg/mL
same,"MIC, S. aureus",[1]; [8],16 µg/mL
KQKLFAKMLMSALKKKTLVTTPLAGK [ID 45],"X58467 cytochrome P450, expression Ratio ID#:ctrl",A549 epithelial cells,3.4
RRRWKWAWPRRK [ID 24],"ID#:ctrl intensity ratio, X65962 cytochrome P-450",A549 epithelial cells,12.0
LSRIAPAIPWAKL [SEQ ID NO: 10],"MIC, EHEC",[1]; 24 h,64 µg/mL
same,LDH Release (OD490 nm),[2],1.04 ± 0.04 OD490 nm
same,OD490 nm (WST-1 cell viability),HBE cells,1.22 ± 0.05 OD490 nm
KMKSFAKMLMLALKKVLKVLTTALTLKAGLPS [SEQ ID NO: 43],"MIC, C. rhod.",[1]; 24 h,8 µg/mL
same,"MIC, E. coli",[1]; 24 h,8 µg/mL
same,"MIC, EHEC",[1]; 24 h,4 µg/mL
same,"MIC, P. aerug.",[1]; 24 h,16 µg/mL
same,"MIC, S. aureus",[1]; 24 h,128 µg/mL
same,"MIC, S. typhim.",[1]; 24 h,16 µg/mL
same,LDH Release (OD490 nm),[2],4.3 ± 0.2 OD490 nm
same,toxicity / membrane damage,[2],did induce membrane damage
same,OD490 nm (WST-1 cell viability),HBE cells,0.46 ± 0.10 OD490 nm
KRTAIKKVSRRGMSVKARR [SEQ ID NO: 37],LDH Release (OD490 nm),[2],0.96 ± 0.04 OD490 nm
same,OD490 nm (WST-1 cell viability),HBE cells,1.67 ± 0.02 OD490 nm
